Experiments:
MC-38 colon tumor = tested on: MC-38 colon tumor; design: method as in our previous research (data not shown); conditions: in vivo; ref our previous research (data not shown); cited from earlier work
[1] = In vitro release of curcumin by dynamic dialysis method; format: physicochemical; conditions: 20% SDS release medium, 37 °C
Description: In order to evaluate the crosslinking effect, in vitro release profiles of curcumin from DMSO (s-Cur), Cur/NCMs, and Cur/DCMs were studied by dynamic dialysis method with 20% SDS solution as release medium. Lyophilized micelles were reconstituted and diluted to 1 mg/mL of curcumin with PBS (0.1 M, pH 7.4) then placed 1 mL into dialysis tube (MWCO 8000–14,000 Da). The tubes were dialyzed against 50 mL release medium at 37 ± 0.5 °C at a stirring speed of 100 rpm with or without 10 mM GSH. At predetermined time intervals, 1 mL of release medium was withdrawn and replenished with an equal volume of the fresh medium. The amount of curcumin released was determined by HPLC analysis as mentioned above. Cumulative release of curcumin was then calculated. The in vitro release studies were carried out in triplicate.

MC-38 cells = assay: In vitro cytotoxicity, CCK-8 assay; format: cell-based, Murine; conditions: Mus musculus, 72 h, curcumin concentration
Description: The cytotoxicity of s-Cur, Cur/NCMs, and Cur/DCMs against MC-38 cells was determined by a CCK-8 assay. Briefly, MC-38 cells were cultured in RPMI1640 medium with 10% FBS, penicillin (100 U/mL), and streptomycin (100 µg/mL) for 24 h. Then, the cells were seeded in 96-well plates (Corning, NY) at 10,000 cells/well in 100 µL medium. After incubation for 24 h, the cells were exposed to s-Cur and equivalent amount of Cur/NCMs and Cur/DCMs to yield final curcumin concentrations from 0 to 65 µg/mL. For GSH triggered release experiments, adherent cells were incubated with 10 mM glutathione monoethyl ester (GSH-OEt) for 2 h before exposure to the curcumin formulations.
After incubation for 72 h, 10 μL CCK8 solution with 100 μL growth medium was added into each well and the cells were incubated for another 1 h. Then, the culture medium was added with 10 μL 1% SDS (dissolve 0.1 g SDS with PBS to obtain 10 mL solution) to stop the reaction, and reading on a Synergy HTX multi-mode reader (BioTek, Winooski, VT) at 450 nm. The cytotoxicity assay was performed in triplicate and the cell viability (%) was calculated with the following equation: (3) Cell viability=At−AB/Ac−AB×100% where At is the absorption value of samples, Ac is the absorption value of the control group, and AB is the absorption value of the blank group. […]

[2] = Pharmacokinetics after i.v. administration in SD rats; format: in vivo; conditions: Sprague-Dawley, rat, plasma, iv
Description: Nine SD rats were randomly divided into three groups (three rats for each group), receiving s-Cur, Cur/NCMs, and Cur/DCMs. Following the intravenous (i.v.) administration of the three curcumin formulations (20 mg/kg), 0.1 mL of the blood samples was collected from the tail vein at predetermined time intervals. The blood samples were centrifuged for 6 min at 5867×g to obtain the plasma. Then, the curcumin concentrations in the plasma were analyzed using a liquid chromatography mass spectrometer (LCMS-2020) equipped with a Shimadzu UV-visible spectrophotometer (Columbia, MD). The detection limitation of the equipment was 1 ng/mL. We employed the non-compartmental analysis in WinNonlin software V6.2.1 to calculate major pharmacokinetic parameters.

p-MEK1/2 and p-Erk1/2 = assay: Western blot assay of p-MEK1/2 and p-Erk1/2 in MC-38 cells; format: cell-based, Murine; conditions: 10 h
Description: MC38 cells were lysed using whole protein extraction kit (KeyGEN BioTECH, Nanjing, China, KGP250). Protein concentration was determined using bicinchoninic acid (BCA) protein assay (KeyGEN BioTECH, Nanjing, China, KGPBCA). Protein extracts were electrophoresed in 10% SDS-PAGE and transferred to a nitrocellulose filter (NC) membrane, blocked by 5% skim milk at room temperature for 1 h, which was prepared in Tris-buffered saline with tween 20 (TBST). Then, the membranes were immunoblotted by primary antibodies. For detection, HRP-conjugated secondary antibodies (Ray Antibody Biotech, Beijing, China, RM2001L) and chemiluminescent HRP substrate kit (EpiZyme, Shanghai, China, SQ2O2) were used. As the molecular weight of the target bands is similar, the western blot fast stripping buffer (EpiZyme, Shanghai, China, PS107) was used. The following primary antibodies were used: anti-p-MEK1/2 (Cell Signaling Technology (CST), 41G9, Boston, MA), anti-p-Erk1/2 (CST, 197G2). The blots were quantified using ImageJ (National Institutes of Health, Bethesda, MD) and normalized to the control group.

In the case of `COc1cc(C=CC(=O)CC(=O)C=Cc2ccc(O)c(OC)c2)ccc1O` [s-Cur, 1,7-bis(4-hydroxy-3-methoxyphenyl)-1,6-heptadiene-3,5-dione], the “enhancement of the antitumor effects of anti-PD-1” value (MC-38 colon tumor) is given as “not to be able to significantly enhance the antitumor effects of anti-PD-1”, the curcumin released ([1]; at 24 h) is given as 75% and the curcumin released ([1]; within the first 8 h) is given as “About 60%”. For the same molecule, the IC50 (MC-38 cells) was 13.7 µg/mL, the concentration at 12 h ([2]; i.v. 20 mg/kg, after 12 h (detection limit), read-out: plasma curcumin level) was < 1 ng/mL and the concentration at 30 min ([2]; i.v. 20 mg/kg, within 30 min, read-out: plasma curcumin level) was < 100 ng/mL. It also gave an AUC(0-inf) ([2]; single dosage 20 mg/kg) of 1970 ng·h/mL, an AUC(0-t) ([2]; single dosage 20 mg/kg) of 1960 ng·h/mL and a Cmax ([2]; single dosage 20 mg/kg) of 7120 ng/mL. The half-life ([2]; single dosage 20 mg/kg) was 83.4 min, the clearance ([2]; single dosage 20 mg/kg, read-out: CLz (converted)) was 170 mL/min/kg and the MRT last ([2]; single dosage 20 mg/kg, read-out: MRT(0–t)) was 9 min. The MRT inf ([2]; single dosage 20 mg/kg, read-out: MRT(0–∞)) was 9.6 min, the Vd ([2]; single dosage 20 mg/kg, read-out: Vz) was 20.4 L/kg and the “expression of the proliferative marker proteins p-MEK1/2 and p-ERK1/2” value (p-MEK1/2 and p-Erk1/2) was “significantly low expression”.
